Data: paper PMC6956804, “Potent antibacterial activity of MSI-1 derived from the magainin 2 peptide against drug-resistant bacteria” (Theranostics, 2020)
Converted amounts (≈) assume the structure as drawn. Where two headings read alike, the source gives them in different places. Peptide text beside a SMILES is read from it.

Assays:
[1] = system: G- and G+ bacteria; assay: Antimicrobial activity, summary over the strains; assay type: cell-based; conditions: MIC expressed in μM, compared with IC50 on eukaryotic cells
Procedure: (§1) A standard micro-broth serial dilution assay was used to measure MIC of peptides. MIC was obtained by a microplate reader at 600 nm. MBC was determined as previously described.

[2] = Calcein release from liposomes; conditions: 4× MIC
Procedure: (§2) E. coli were mixed with different concentrations of MSI-1, incubated for 2 h, resuspended by PI solution (20 μg/ml), and ultimately subjected to flow cytometry for PI uptake assay. Calcein-loaded liposomes were prepared to imitate bacterial membrane. Serially diluted peptide was added into liposomes (1:1, v:v) after obtaining the fluorescence intensity at λex/λem=490/520 nm. Once MSI-1 addition, fluorescence intensity was detected at 0, 3, 5, 10, 15 and 20 min. Calcein release rate was calculated as previously described. To observe bacterial morphology, E. coli treated with MSI-1 (32 μg/ml) or PBS for 2 h was collected, fixed by 2.5% glutaraldehyde and subjected to scanning electron microscopy (SEM) assay (SUI510, Hitachi, Japan). In addition, E. coli were resuspended in reaction buffer (60 mM Na2HPO4^. 7H2O, 40 mM NaH2PO4^. H2O, 10 mM KCl, 1 mM MgSO4.7H2O, 0.27% 2-Mercaptoethanol), incubated with ONPG (2.5 mg/ml) and MSI-1 for 2 h. Bacteria envelope integrity was calculated by the percentage of O-nitrophenol production.

[3] = system: C57BL/6 mice; assay: Acute toxicity in mice; assay type: in vivo; conditions: intraperitoneal, n=6/group
Procedure: C57BL/6 mice (n=6/group) were intraperitoneally injected with MSI-1 (0, 10, 20, 40, 80 and 100 mg/kg/body weight, respectively). Animals were inspected for adverse effects for 30 min, and survival was monitored for 12 h thereafter. The toxicity severity was classified as Malik U et al previously described.

[4] = 20% fresh mouse serum, turbidimetry
Description: At indicated time points, samples were denatured with equal volumes of 6 M urea and subjected to HPLC analysis or antibacterial activity evaluation.

[5] = system: Helicobacterpylori SS1; assay type: cell-based; conditions: 4 h
Procedure: Bacterial strains were purchased from the American Type Culture Collection (ATCC). All clinical strains were isolated from human clinical specimens by the Medical Laboratory Center of Zhongda Hospital (Nanjing, Jiangsu, China). Ndm-1, tem-1, ctx-m-1, shv-1 -carrying bacteria were constructed as previously described. The recombinant bacteria carrying drug-resistant genes were prepared in LB nutrient and induced by IPTG (1 mM) for 4 h before text. Other bacterial strains were respectively prepared in MHB and Columbia Blood Agar Base.
as §1

[6] = system: penicillin-resistant E. coli; assay: Bacteria growth curve and viability at sub-MICs; assay type: cell-based
Procedure: E. coli were mixed with sub-MICs MSI-1 and OD600 value was recorded every 2 h throughout 26 h of coincubation. In addition, bacteria were suspended with nutrient broth containing MSI-1 and subjected to routine MTT assay after 24 h incubation.

[7] = system: HaCaT cells; assay: Wound scratch assay; assay type: cell-based; conditions: cell scratch assay
Procedure: To further investigate whether MSI-1 could protect from bacterial infection of the skin, mice were anesthetized with pentobarbital sodium (50 mg/kg, i.p) and shaved on the dorsal surfaces. The depilated skin was secured with 2-cm-diameter plastic containers that filled up with boiling water at contact time 10 s. Afterwards, a full-thickness wound (2 cm in diameter) was cut on the burned skin of each mouse. Penicillin-resistant E. coli suspension (100 µl, 1× 10^10 CFU/ml) was slowly inoculated over wound with a pipette tip, and a gentle stream of air was aimed over the inoculation site until skin appeared wet but absent of any standing volume from the inoculum suspension. Two hours later, vehicle (3% CMC-Na), MSI-1 or polymyxin, which was suspended in sterile CMC-Na (3%) in PBS at concentration of 10, 5, 2.5 mg/ml (MSI-1) or 5 mg/ml (polymyxin), was inoculated on the same area with a pipette tip, 1 ml/kg, once a day (n=15 per group). Mice were fed in cages individually to avoid cross infection and were treated daily for 7 consecutive days. At 3rd and 7th days, cutaneous wound healing and bacteria counts in skin lesion were measured. Moreover, 12 h after the last treatment, blood samples were collected from the retro-orbital venous plexus under anesthesia (pentobarbital sodium, 50 mg/kg). […] The contents of TNF-α and IL-6 in skin homogenates and serum were measured by ELISA. […]

[8] = system: E. coli; assay: PI uptake assay, flow cytometry; assay type: cell-based; conditions: 4× MIC, 2 h
Procedure: as §2

[9] = pH stability; assay type: physicochemical
Procedure: MSI-1 at 2 mg/ml in PBS (pH 7.0), aqueous HCl (pH 3.0) and aqueous NaOH (pH 11.0) were incubated for 2, 4, 12 and 24 h at 37 °C. The remaining MSI-1 was measured by HPLC. In addition, the bacteria colonies survived 1× MIC of HCl or NaOH treated peptide were recorded simultaneously. That is, after 18 h coincubation, the absorbance which represents the bacteria colonies survived, was recorded by a microplate reader at 600 nm.

CC[C@H](C)[C@H](NC(=O)CN)C(=O)N[C@@H](Cc1c[nH]c2ccccc12)C(=O)N[C@@H](CCCCN)C(=O)N[C@@H](Cc1ccccc1)C(=O)N[C@@H](CC(C)C)C(=O)N[C@@H](CCCCN)C(=O)N[C@@H](CCCCN)C(=O)N[C@@H](C)C(=O)N[C@@H](CCCCN)C(=O)N[C@@H](CCCCN)C(=O)N[C@@H](Cc1ccccc1)C(=O)N[C@@H](Cc1c[nH]c2ccccc12)C(=O)N[C@@H](CCCCN)C(N)=O [MSI-1] (H-GIWKFLKKAKKFWK-NH2)
effective antimicrobial concentration in vitro [1]: 4.4 to 8.8 µM | leakage of Calcein [2]: over 80% | adverse events ([3]; 20 mg/kg): no immediate adverse events | adverse effects at approximately 5 min post injection ([3]; dose of peptide above 40 mg/kg): one mouse in the MS-1-treated group exhibited narrowing of the eyes | inhibition rate against bacteria after serum incubation ([4]; 0.5 h): 76.8% | inhibition rate against bacteria after serum incubation ([4]; 2 h): 46.9% | MBC [5]: 64 mg/L (≈ 35.4 µM) | MIC [5]: 32 mg/L (≈ 17.7 µM) | growth pattern of bacteria ([6]; 1/4 and 1/8 MIC, OD600 over 26 h): not significantly altered | cell viability vs control ([6]; sub-MICs, MTT, within 26 h, p>0.05): no significant difference | migration of HaCaT cells [7]: could not promote the migration | PI-positive rate [8]: 80.4% | percentage of remaining MSI-1 ([9]; 2 mg/ml in aqueous HCl (pH 3.0), aqueous NaOH (pH 11.0) or PBS (pH 7.0), 37 °C, within 24 h, HPLC): 99%-100% | effect of HCl (pH 3.0) and NaOH (pH 11.0) treatment on MIC against bacteria ([9]; treated peptide at 1× MIC, 18 h, 600 nm): did not affect the MIC
